From ChEMBL document CHEMBL1152283, “Design at the atomic level: generation of novel hybrid biaryloxazolidinones as promising new antibiotics” (Bioorg Med Chem Lett, 2008)
Values after ≈ are worked out from the molar mass of the structure shown.

Legend:
Haemophilus influenzae [1] = assay: Antimicrobial activity against Haemophilus influenzae 895 (AcrB-KO) by NCCLS method; type: functional
Streptococcus pneumoniae = assay: Antimicrobial activity against Streptococcus pneumoniae 02J1175 expressing mef(A) gene by NCCLS method; type: functional
Streptococcus pyogenes = assay: Antimicrobial activity against Streptococcus pyogenes Msr 610 expressing erm(B) gene by NCCLS method; type: functional
Enterococcus faecalis = assay: Antimicrobial activity against linezolid-resistant Enterococcus faecalis P5 by NCCLS method; type: functional
Haemophilus influenzae [2] = assay: Antimicrobial activity against Haemophilus influenzae RD1 by NCCLS method; type: functional
Escherichia coli [3] = assay: Inhibition of protein synthesis in Escherichia coli by translation assay
Escherichia coli [4] = assay: Inhibition of protein synthesis in Escherichia coli S30 extract by translation assay; type: functional

IC50 (Escherichia coli [4]) [nM]	SMILES	MIC (Haemophilus influenzae [1]) [µg/mL]	MIC (Streptococcus pneumoniae) [µg/mL]	MIC (Streptococcus pyogenes) [µg/mL]	MIC (Enterococcus faecalis) [µg/mL]	MIC (Haemophilus influenzae [2]) [µg/mL]	IC50 (Escherichia coli [3]) [nM]
–	CC(=O)NC[C@H]1CN(c2ccc(-c3ccc(CNC(=O)CCc4cccnc4)cc3)c(F)c2)C(=O)O1	2 (≈ 4.08 µM)	0.5 (≈ 1.02 µM)	0.5 (≈ 1.02 µM)	16 (≈ 32.6 µM)	> 128	580
–	CSC[S@@+]([O-])CC(CO)NC(=O)/C=C/c1c(C)[nH]c(=O)[nH]c1=O (some centres undefined) [SPARSOMYCIN]	8 (≈ 22.1 µM)	2 (≈ 5.53 µM)	2 (≈ 5.53 µM)	> 128	8 (≈ 22.1 µM)	≤ 20
–	CC(=O)NC[C@H]1CN(c2ccc(/C=C/CCCNC(=O)/C=C/c3c(C)[nH]c(=O)[nH]c3=O)c(F)c2)C(=O)O1	1 (≈ 1.95 µM)	1 (≈ 1.95 µM)	1 (≈ 1.95 µM)	32 (≈ 62.3 µM)	> 128	30
–	CC(=O)NC[C@H]1CN(c2ccc(/C=C/CCCNC(=O)CCc3cccnc3)c(F)c2)C(=O)O1	8 (≈ 17.1 µM)	2 (≈ 4.27 µM)	2 (≈ 4.27 µM)	32 (≈ 68.3 µM)	> 128	16000
260	CC(=O)NC[C@H]1CN(c2ccc(N3CCC(CNC(=O)/C=C/c4c(C)[nH]c(=O)[nH]c4=O)CC3)c(F)c2)C(=O)O1	8 (≈ 14.7 µM)	4 (≈ 7.37 µM)	4 (≈ 7.37 µM)	–	> 128	–
–	CC(=O)NC[C@H]1CN(c2ccc(N3CCOCC3)c(F)c2)C(=O)O1 [LINEZOLID]	8 (≈ 23.7 µM)	–	1 (≈ 2.96 µM)	32 (≈ 94.9 µM)	16 (≈ 47.4 µM)	–
–	CC(=O)NC[C@H]1CN(c2ccc(-c3ccc(CNC(=O)/C=C/c4c(C)[nH]c(=O)[nH]c4=O)cc3)c(F)c2)C(=O)O1	≤ 0.25	≤ 0.25	≤ 0.25	16 (≈ 29.9 µM)	> 128	30
